Laboratory results as given in paper PMC7584476, “Safety and efficacy of BAY1436032 in IDH1-mutant AML: phase I study results” (Leukemia, 2020).

Test system: subjects with mIDH1 advanced AML
Experiment: Phase I study: safety and tolerability (TEAE, DLT, MTD, ECG)
Type: in vivo
Experimental: This study was an open-label, nonrandomized, multicenter phase I trial. Subjects were screened at 13 hospital sites in 2 countries (USA and Germany). The study was to consist of dose-escalation followed by dose-expansion. The MTD identified in dose-escalation was to be used in the dose-expansion. If MTD was not reached in dose-escalation, a dose for the expansion would be selected based on available PK, pharmacodynamic, safety, and efficacy data. BAY1436032 was administered twice-daily (BID) in continuous 28-day cycles. In dose-escalation, up to 9 evaluable subjects could be enrolled per cohort, with a minimum of 3 dose-limiting toxicity (DLT)-free evaluable subjects required prior to escalating to the next highest dose. Bayesian dose-DLT modeling was performed to help guide dosing decisions.
DLTs were differentially defined for nonhematopoietic versus hematopoietic toxicities. Nonhematopoietic toxicities of ≥grade 3 occurring during the first cycle of treatment were to be considered DLTs with the following exceptions: (1) Alopecia and nausea controlled by medical management; (2) Tumor lysis syndrome if successfully managed clinically and resolved within 7 days without any end-organ damage; (3) Differentiation syndrome (DS) if successfully managed clinically and resolved within 7 days without any end-organ damage; (4) Asymptomatic ≥grade 3 electrolyte abnormalities not considered clinically significant by the investigator. […] For certain toxicities such as laboratory assessments without a clear clinical correlate, a discussion between the investigator and the sponsor determined whether the adverse event (AE) should be assessed as a DLT.
DLTs identified during the first cycle of treatment were used to guide dose-escalation decisions and to determine the MTD, and if safety issues appeared in subsequent cycles they were also to be considered. Hydroxyurea was permitted during the first cycle if white blood cell (WBC) exceeded 20 × 10^9/L and was also permitted for treatment of DS.
Safety and tolerability were evaluated by analysis of adverse events, physical examinations, vital signs, ECOG performance status, and various laboratory assessments. For safety monitoring, subjects were scheduled for clinic visits every week for the initial three cycles of treatment, after which time visits could be reduced to every-other-week with investigator and sponsor agreement. Cardiac function was assessed with triplicate 12-lead electrocardiograms (ECG) at screening, C1-D1, C1-D2, C1-D15, D1 of every subsequent cycle, and at treatment end. […] AEs are presented by the Medical Dictionary for Regulatory Activities (MedDRA) v21.1.

C[C@H]1C[C@@H](n2c(Nc3ccc(OC(F)(F)F)cc3)nc3cc(CCC(=O)O)ccc32)CC(C)(C)C1 [BAY1436032]
TEAE Decreased appetite Grade 1 (600 mg BID, n=4): 0 | TEAE Decreased appetite Grade 2 (600 mg BID, n=4): 0 | TEAE Decreased appetite Grade 3 (600 mg BID, n=4): 0 | TEAE Diarrhea Grade 1 (600 mg BID, n=4): 0 | TEAE Diarrhea Grade 2 (600 mg BID, n=4): 0 | TEAE Dry skin Grade 1 (600 mg BID, n=4): 1 | TEAE Dyspnoea Grade 1 (600 mg BID, n=4): 0 | TEAE Dyspnoea Grade 2 (600 mg BID, n=4): 0 | TEAE Dyspnoea Grade 3 (600 mg BID, n=4): 0 | TEAE Epistaxis Grade 1 (600 mg BID, n=4): 1 | TEAE Epistaxis Grade 2 (600 mg BID, n=4): 0 | TEAE Epistaxis Grade 3 (600 mg BID, n=4): 1 | TEAE Fall Grade 1 (600 mg BID, n=4): 1 | TEAE Fatigue Grade 1 (600 mg BID, n=4): 1 | TEAE Fatigue Grade 2 (600 mg BID, n=4): 0 | TEAE Fatigue Grade 3 (600 mg BID, n=4): 0 | TEAE Febrile neutropenia Grade 3 (600 mg BID, n=4): 1 | TEAE General physical health deterioration Grade 3 (600 mg BID, n=4): 0 | TEAE General physical health deterioration Grade 5 (600 mg BID, n=4): 0 | TEAE Gingivitis Grade 1 (600 mg BID, n=4): 1 | TEAE Haematuria Grade 1 (600 mg BID, n=4): 0 | TEAE Haematuria Grade 2 (600 mg BID, n=4): 1 | TEAE Haematuria Grade 3 (600 mg BID, n=4): 0 | TEAE Headache Grade 1 (600 mg BID, n=4): 0 | TEAE Headache Grade 2 (600 mg BID, n=4): 0 | TEAE Headache Grade 3 (600 mg BID, n=4): 0 | TEAE Hyperkalaemia Grade 1 (600 mg BID, n=4): 1 | TEAE Hyperkalaemia Grade 4 (600 mg BID, n=4): 1 | TEAE Hypertension Grade 2 (600 mg BID, n=4): 0 | TEAE Hypertension Grade 3 (600 mg BID, n=4): 0 | TEAE Hyperuricaemia Grade 1 (600 mg BID, n=4): 1 | TEAE Hyperuricaemia Grade 3 (600 mg BID, n=4): 1 | TEAE Hypokalaemia Grade 1 (600 mg BID, n=4): 0 | TEAE Hypokalaemia Grade 2 (600 mg BID, n=4): 0 | TEAE Hypokalaemia Grade 3 (600 mg BID, n=4): 0 | TEAE Hyponatraemia Grade 1 (600 mg BID, n=4): 0 | TEAE Hyponatraemia Grade 3 (600 mg BID, n=4): 0 | TEAE Hypophosphataemia Grade 1 (600 mg BID, n=4): 0 | TEAE Hypophosphataemia Grade 2 (600 mg BID, n=4): 0 | TEAE Leukocytosis Grade 2 (600 mg BID, n=4): 0 | TEAE Leukocytosis Grade 3 (600 mg BID, n=4): 0 | TEAE Lung infection Grade 3 (600 mg BID, n=4): 1 | TEAE Lung infection Grade 5 (600 mg BID, n=4): 0 | TEAE Nausea Grade 1 (600 mg BID, n=4): 1 | TEAE Nausea Grade 2 (600 mg BID, n=4): 0 | TEAE Nausea Grade 3 (600 mg BID, n=4): 0 | TEAE Oedema peripheral Grade 1 (600 mg BID, n=4): 1 | TEAE Oedema peripheral Grade 3 (600 mg BID, n=4): 0 | TEAE Pain in extremity Grade 1 (600 mg BID, n=4): 0 | TEAE Pain in extremity Grade 2 (600 mg BID, n=4): 0 | TEAE Pneumonia Grade 1 (600 mg BID, n=4): 0 | TEAE Pneumonia Grade 2 (600 mg BID, n=4): 0 | TEAE Pneumonia Grade 3 (600 mg BID, n=4): 0 | TEAE Pneumonia fungal Grade 2 (600 mg BID, n=4): 0 | TEAE Pneumonia fungal Grade 3 (600 mg BID, n=4): 0 | TEAE Pneumonia fungal Grade 4 (600 mg BID, n=4): 0 | TEAE Productive cough Grade 1 (600 mg BID, n=4): 1 | TEAE Productive cough Grade 2 (600 mg BID, n=4): 0 | TEAE Pyrexia Grade 1 (600 mg BID, n=4): 1 | TEAE Pyrexia Grade 2 (600 mg BID, n=4): 1 | TEAE Pyrexia Grade 3 (600 mg BID, n=4): 0 | TEAE Rash Grade 1 (600 mg BID, n=4): 0 | TEAE Rash Grade 2 (600 mg BID, n=4): 1 | TEAE Sepsis Grade 4 (600 mg BID, n=4): 1 | TEAE Sepsis Grade 5 (600 mg BID, n=4): 0 | TEAE Sinus tachycardia Grade 1 (600 mg BID, n=4): 0 | TEAE Thrombocytopenia Grade 4 (600 mg BID, n=4): 0 | TEAE Vomiting Grade 1 (600 mg BID, n=4): 1 | TEAE Weight decreased Grade 1 (600 mg BID, n=4): 0 | TEAE Weight decreased Grade 2 (600 mg BID, n=4): 1 | TEAE Weight decreased Grade 3 (600 mg BID, n=4): 0 | Related TEAE Decreased appetite Grade 1 (1200 mg BID, n=7): 0 | Related TEAE Decreased appetite Grade 2 (1200 mg BID, n=7): 0 | Related TEAE Diarrhea Grade 2 (1200 mg BID, n=7): 2 | Related TEAE Differentiation syndrome Grade 2 (1200 mg BID, n=7): 0 | Related TEAE Differentiation syndrome Grade 3 (1200 mg BID, n=7): 1 | Related TEAE Dyspnea Grade 1 (1200 mg BID, n=7): 1 | Related TEAE Dyspnea Grade 2 (1200 mg BID, n=7): 0 | Related TEAE Fatigue Grade 1 (1200 mg BID, n=7): 0 | Related TEAE Fatigue Grade 2 (1200 mg BID, n=7): 1 | Related TEAE Fatigue Grade 3 (1200 mg BID, n=7): 0 | Related TEAE Hypomagnesaemia Grade 1 (1200 mg BID, n=7): 0 | Related TEAE Nausea Grade 1 (1200 mg BID, n=7): 1 | Related TEAE Nausea Grade 2 (1200 mg BID, n=7): 0 | Related TEAE Sinus tachycardia Grade 1 (1200 mg BID, n=7): 0 | Related TEAE Vomiting Grade 1 (1200 mg BID, n=7): 0 | TEAE Abdominal pain upper Grade 1 (1200 mg BID, n=7): 0 | TEAE Abdominal pain upper Grade 2 (1200 mg BID, n=7): 0 | TEAE Acute kidney injury Grade 1 (1200 mg BID, n=7): 0 | TEAE Acute kidney injury Grade 2 (1200 mg BID, n=7): 0 | TEAE Acute kidney injury Grade 3 (1200 mg BID, n=7): 0 | TEAE Anaemia Grade 3 (1200 mg BID, n=7): 3 | TEAE Anaemia Grade 4 (1200 mg BID, n=7): 0 | TEAE Anxiety Grade 1 (1200 mg BID, n=7): 1 | TEAE Anxiety Grade 2 (1200 mg BID, n=7): 0 | TEAE Arthralgia Grade 1 (1200 mg BID, n=7): 0 | TEAE Arthralgia Grade 2 (1200 mg BID, n=7): 1 | TEAE Constipation Grade 1 (1200 mg BID, n=7): 1 | TEAE Constipation Grade 2 (1200 mg BID, n=7): 0 | TEAE Contusion Grade 1 (1200 mg BID, n=7): 1 | TEAE Contusion Grade 2 (1200 mg BID, n=7): 0 | TEAE Cough Grade 1 (1200 mg BID, n=7): 0 | TEAE Cough Grade 2 (1200 mg BID, n=7): 0 | TEAE Decreased appetite Grade 1 (1200 mg BID, n=7): 0 | TEAE Decreased appetite Grade 2 (1200 mg BID, n=7): 1 | TEAE Decreased appetite Grade 3 (1200 mg BID, n=7): 0 | TEAE Diarrhea Grade 1 (1200 mg BID, n=7): 1 | TEAE Diarrhea Grade 2 (1200 mg BID, n=7): 2 | TEAE Dry skin Grade 1 (1200 mg BID, n=7): 1 | TEAE Dyspnoea Grade 1 (1200 mg BID, n=7): 1 | TEAE Dyspnoea Grade 2 (1200 mg BID, n=7): 1 | TEAE Dyspnoea Grade 3 (1200 mg BID, n=7): 0 | TEAE Epistaxis Grade 1 (1200 mg BID, n=7): 0 | TEAE Epistaxis Grade 2 (1200 mg BID, n=7): 2 | TEAE Epistaxis Grade 3 (1200 mg BID, n=7): 0 | TEAE Fall Grade 1 (1200 mg BID, n=7): 1 | TEAE Fatigue Grade 1 (1200 mg BID, n=7): 0 | TEAE Fatigue Grade 2 (1200 mg BID, n=7): 2 | TEAE Fatigue Grade 3 (1200 mg BID, n=7): 0 | TEAE Febrile neutropenia Grade 3 (1200 mg BID, n=7): 2 | TEAE General physical health deterioration Grade 3 (1200 mg BID, n=7): 0 | TEAE General physical health deterioration Grade 5 (1200 mg BID, n=7): 0 | TEAE Gingivitis Grade 1 (1200 mg BID, n=7): 0 | TEAE Haematuria Grade 1 (1200 mg BID, n=7): 1 | TEAE Haematuria Grade 2 (1200 mg BID, n=7): 0 | TEAE Haematuria Grade 3 (1200 mg BID, n=7): 0 | TEAE Headache Grade 1 (1200 mg BID, n=7): 0 | TEAE Headache Grade 2 (1200 mg BID, n=7): 0 | TEAE Headache Grade 3 (1200 mg BID, n=7): 0 | TEAE Hyperkalaemia Grade 1 (1200 mg BID, n=7): 0 | TEAE Hyperkalaemia Grade 4 (1200 mg BID, n=7): 0 | TEAE Hypertension Grade 2 (1200 mg BID, n=7): 0 | TEAE Hypertension Grade 3 (1200 mg BID, n=7): 1 | TEAE Hyperuricaemia Grade 1 (1200 mg BID, n=7): 2 | TEAE Hyperuricaemia Grade 3 (1200 mg BID, n=7): 0
